Source: ChEMBL document CHEMBL4130529, “From PIM1 to PI3Kδ via GSK3β: Target Hopping through the Kinome” (ACS Med Chem Lett, 2017)

target: T1, Phosphatidylinositol 4,5-bisphosphate 3-kinase catalytic subunit delta isoform (Homo sapiens, UniProt O00329); test: Inhibition of PI3Kdelta (unknown origin) using PIP2 as substrate pretreated for 15 mins followed by substrate addition measured after 1 hr
T1 sequence (O00329 whole entry): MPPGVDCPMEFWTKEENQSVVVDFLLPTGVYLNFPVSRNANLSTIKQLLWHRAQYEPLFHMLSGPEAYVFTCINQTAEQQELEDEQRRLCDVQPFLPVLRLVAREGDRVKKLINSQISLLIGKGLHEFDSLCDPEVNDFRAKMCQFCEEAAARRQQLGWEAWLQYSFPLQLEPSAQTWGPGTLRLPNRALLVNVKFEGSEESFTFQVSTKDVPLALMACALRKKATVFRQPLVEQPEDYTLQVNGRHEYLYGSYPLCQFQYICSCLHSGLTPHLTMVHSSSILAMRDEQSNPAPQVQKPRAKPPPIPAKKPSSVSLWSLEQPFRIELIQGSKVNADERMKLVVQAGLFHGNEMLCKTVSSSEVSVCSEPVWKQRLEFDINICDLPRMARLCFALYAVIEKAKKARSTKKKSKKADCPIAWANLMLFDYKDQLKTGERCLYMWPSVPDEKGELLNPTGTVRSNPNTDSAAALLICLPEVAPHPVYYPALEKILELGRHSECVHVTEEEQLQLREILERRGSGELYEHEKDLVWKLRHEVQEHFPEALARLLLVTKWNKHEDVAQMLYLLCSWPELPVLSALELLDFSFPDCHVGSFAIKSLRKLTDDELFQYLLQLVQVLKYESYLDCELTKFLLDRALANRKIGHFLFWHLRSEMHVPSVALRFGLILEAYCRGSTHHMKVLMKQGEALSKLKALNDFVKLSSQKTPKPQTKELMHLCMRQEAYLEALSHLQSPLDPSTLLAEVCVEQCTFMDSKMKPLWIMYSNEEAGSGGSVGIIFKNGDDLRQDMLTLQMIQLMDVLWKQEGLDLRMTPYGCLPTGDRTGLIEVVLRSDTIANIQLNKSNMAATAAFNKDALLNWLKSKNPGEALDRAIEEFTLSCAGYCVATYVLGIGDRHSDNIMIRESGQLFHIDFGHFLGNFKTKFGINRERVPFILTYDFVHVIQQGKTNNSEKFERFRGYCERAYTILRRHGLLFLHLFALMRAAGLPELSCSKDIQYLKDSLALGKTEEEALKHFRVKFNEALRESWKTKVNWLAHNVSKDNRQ

Structure (SMILES)	IC50 [µM]
O=C(Nc1cc(-c2cccc3[nH]ccc23)cc2[nH]ncc12)C1CC1	1
O=C(Nc1cc(-c2ccccc2)cc2[nH]ncc12)C1CC1	20
O=C(Nc1cc(-c2cccc(O)c2)cc2[nH]ncc12)C1CC1	3.98
O=C(Nc1cc(-c2cccc(O)c2)cc2[nH]ncc12)c1ccccn1	1.58
O=C(Nc1cc(-c2ccc3cc[nH]c3c2)cc2[nH]ncc12)c1ccccn1	3.16
O=C(Nc1n[nH]c2cc(-c3ccc(O)cc3)ccc12)C1CC1	25.1
O=C(Nc1cc(-c2ccc(O)cc2)cc2[nH]ncc12)c1ccccn1	0.501
O=C(Nc1cc(-c2ccc(O)cc2)cc2[nH]ncc12)C1CC1	6.31

target: Phosphatidylinositol 4,5-bisphosphate 3-kinase catalytic subunit gamma isoform (Homo sapiens, UniProt P48736); test: Inhibition of PI3Kgamma (unknown origin) using PIP2 as substrate pretreated for 15 mins followed by substrate addition measured after 1 hr
Sequence (P48736 whole entry, canonical isoform): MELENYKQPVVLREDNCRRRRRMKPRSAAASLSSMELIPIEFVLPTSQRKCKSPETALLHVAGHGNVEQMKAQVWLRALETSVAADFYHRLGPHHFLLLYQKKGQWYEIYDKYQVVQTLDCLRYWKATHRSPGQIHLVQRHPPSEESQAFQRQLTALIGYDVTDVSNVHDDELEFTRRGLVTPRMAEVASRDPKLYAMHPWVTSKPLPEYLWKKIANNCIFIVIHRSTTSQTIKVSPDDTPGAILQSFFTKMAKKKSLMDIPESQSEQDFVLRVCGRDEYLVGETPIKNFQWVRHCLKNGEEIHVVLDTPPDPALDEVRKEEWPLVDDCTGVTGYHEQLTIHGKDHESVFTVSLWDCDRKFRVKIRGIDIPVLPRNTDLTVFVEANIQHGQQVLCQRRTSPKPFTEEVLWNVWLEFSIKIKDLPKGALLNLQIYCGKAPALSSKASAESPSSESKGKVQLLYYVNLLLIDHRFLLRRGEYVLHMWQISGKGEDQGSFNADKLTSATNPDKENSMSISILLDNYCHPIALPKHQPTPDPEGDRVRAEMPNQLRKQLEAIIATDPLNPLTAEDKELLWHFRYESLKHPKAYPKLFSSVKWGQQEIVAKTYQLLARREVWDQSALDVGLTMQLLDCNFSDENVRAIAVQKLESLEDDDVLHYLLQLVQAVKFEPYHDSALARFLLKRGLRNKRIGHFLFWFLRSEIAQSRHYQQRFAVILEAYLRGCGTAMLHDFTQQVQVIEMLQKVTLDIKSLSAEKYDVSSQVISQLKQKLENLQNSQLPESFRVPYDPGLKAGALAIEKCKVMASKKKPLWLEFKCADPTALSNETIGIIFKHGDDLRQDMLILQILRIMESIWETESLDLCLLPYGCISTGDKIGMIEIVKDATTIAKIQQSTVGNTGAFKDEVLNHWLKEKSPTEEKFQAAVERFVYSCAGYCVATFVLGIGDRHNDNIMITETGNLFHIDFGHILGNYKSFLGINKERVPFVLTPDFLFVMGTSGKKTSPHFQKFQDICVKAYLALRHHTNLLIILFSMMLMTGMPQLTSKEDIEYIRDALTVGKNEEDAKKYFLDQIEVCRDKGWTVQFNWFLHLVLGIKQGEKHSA

Structure (SMILES)	IC50 [µM]
O=C(Nc1cc(-c2cccc3[nH]ccc23)cc2[nH]ncc12)C1CC1	> 25.1
O=C(Nc1cc(-c2ccccc2)cc2[nH]ncc12)C1CC1	25.1
O=C(Nc1cc(-c2cccc(O)c2)cc2[nH]ncc12)C1CC1	7.94
O=C(Nc1cc(-c2cccc(O)c2)cc2[nH]ncc12)c1ccccn1	7.94
O=C(Nc1cc(-c2ccc3cc[nH]c3c2)cc2[nH]ncc12)c1ccccn1	15.8
O=C(Nc1n[nH]c2cc(-c3ccc(O)cc3)ccc12)C1CC1	> 25.1
O=C(Nc1cc(-c2ccc(O)cc2)cc2[nH]ncc12)c1ccccn1	5.01
O=C(Nc1cc(-c2ccc(O)cc2)cc2[nH]ncc12)C1CC1	> 25.1

target: Serine/threonine-protein kinase pim-1 (Homo sapiens, UniProt P11309); test: Inhibition of PIM1 (unknown origin) using TAMRA-ERMRPRKRQGSVRRRV-NH2 as substrate pretreated for 30 mins followed by substrate addition measured after 1 hr by IMAP assay
Sequence (P11309 whole entry): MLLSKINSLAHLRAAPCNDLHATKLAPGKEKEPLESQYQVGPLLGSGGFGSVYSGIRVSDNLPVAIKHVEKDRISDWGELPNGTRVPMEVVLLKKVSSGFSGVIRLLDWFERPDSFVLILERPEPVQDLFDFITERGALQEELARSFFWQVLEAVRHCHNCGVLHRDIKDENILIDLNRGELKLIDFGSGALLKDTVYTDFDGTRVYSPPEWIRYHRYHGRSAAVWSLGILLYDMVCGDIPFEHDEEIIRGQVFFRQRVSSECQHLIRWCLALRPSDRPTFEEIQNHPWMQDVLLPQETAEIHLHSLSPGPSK

Structure (SMILES)	IC50 [µM]
O=C(Nc1cc(-c2cccc3[nH]ccc23)cc2[nH]ncc12)c1ccccn1	2.51
O=C(Nc1cc(-c2cccc3[nH]ccc23)cc2[nH]ncc12)C1CC1	15.8
O=C(Nc1cc(-c2ccccc2)cc2[nH]ncc12)C1CC1	15.8
O=C(Nc1cc(-c2cccc(O)c2)cc2[nH]ncc12)C1CC1	2.51
O=C(Nc1cc(-c2cccc(O)c2)cc2[nH]ncc12)c1ccccn1	2
O=C(Nc1cc(-c2ccc(O)cc2)cc2[nH]ncc12)c1ccccn1	0.126
O=C(Nc1cc(-c2ccc(O)cc2)cc2[nH]ncc12)C1CC1	0.316

target: Phosphatidylinositol 4,5-bisphosphate 3-kinase catalytic subunit beta isoform (Homo sapiens, UniProt P42338); test: Inhibition of PI3Kbeta (unknown origin) using PIP2 as substrate pretreated for 15 mins followed by substrate addition measured after 1 hr
Sequence (P42338 whole entry, canonical isoform): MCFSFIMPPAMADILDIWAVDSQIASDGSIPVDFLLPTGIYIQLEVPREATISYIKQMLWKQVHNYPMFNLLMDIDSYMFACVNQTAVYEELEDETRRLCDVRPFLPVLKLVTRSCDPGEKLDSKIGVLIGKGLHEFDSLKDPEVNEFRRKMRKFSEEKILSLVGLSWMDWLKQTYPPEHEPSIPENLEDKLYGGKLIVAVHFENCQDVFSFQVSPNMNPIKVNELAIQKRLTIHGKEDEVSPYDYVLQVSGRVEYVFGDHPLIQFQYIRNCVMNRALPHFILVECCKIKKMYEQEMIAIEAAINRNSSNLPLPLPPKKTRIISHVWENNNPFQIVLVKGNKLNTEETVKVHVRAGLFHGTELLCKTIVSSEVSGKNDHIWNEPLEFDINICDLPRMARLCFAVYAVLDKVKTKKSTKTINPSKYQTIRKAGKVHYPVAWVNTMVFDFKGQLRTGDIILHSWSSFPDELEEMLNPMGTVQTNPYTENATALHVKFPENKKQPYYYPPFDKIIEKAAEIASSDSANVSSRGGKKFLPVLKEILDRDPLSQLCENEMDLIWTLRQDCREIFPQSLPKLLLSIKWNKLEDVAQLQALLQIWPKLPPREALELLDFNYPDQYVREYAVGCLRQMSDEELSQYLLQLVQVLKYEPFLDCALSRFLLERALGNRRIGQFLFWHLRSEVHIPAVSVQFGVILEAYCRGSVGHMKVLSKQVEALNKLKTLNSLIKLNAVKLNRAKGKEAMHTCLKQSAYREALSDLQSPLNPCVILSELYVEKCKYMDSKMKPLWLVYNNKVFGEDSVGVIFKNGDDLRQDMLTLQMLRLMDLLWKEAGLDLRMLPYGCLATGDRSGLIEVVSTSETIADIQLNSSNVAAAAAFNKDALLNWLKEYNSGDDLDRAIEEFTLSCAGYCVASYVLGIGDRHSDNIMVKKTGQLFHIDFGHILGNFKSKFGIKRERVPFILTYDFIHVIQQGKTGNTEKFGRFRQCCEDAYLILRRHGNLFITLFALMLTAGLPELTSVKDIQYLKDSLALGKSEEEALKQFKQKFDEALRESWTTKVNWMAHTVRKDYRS

Structure (SMILES)	IC50 [µM]
O=C(Nc1cc(-c2cccc3[nH]ccc23)cc2[nH]ncc12)C1CC1	25.1
O=C(Nc1cc(-c2ccccc2)cc2[nH]ncc12)C1CC1	> 25.1
O=C(Nc1cc(-c2cccc(O)c2)cc2[nH]ncc12)C1CC1	20
O=C(Nc1cc(-c2cccc(O)c2)cc2[nH]ncc12)c1ccccn1	31.6
O=C(Nc1cc(-c2ccc3cc[nH]c3c2)cc2[nH]ncc12)c1ccccn1	12.6
O=C(Nc1n[nH]c2cc(-c3ccc(O)cc3)ccc12)C1CC1	> 25.1
O=C(Nc1cc(-c2ccc(O)cc2)cc2[nH]ncc12)c1ccccn1	> 25.1
O=C(Nc1cc(-c2ccc(O)cc2)cc2[nH]ncc12)C1CC1	25.1

organism: Homo sapiens; test: Selectivity ratio of pIC50 for ALK5 (unknown origin) to pIC50 for PI3Kdelta (unknown origin)

Structure (SMILES)	Ratio IC50
O=C(Nc1cc(-c2cccc3[nH]ccc23)cc2[nH]ncc12)c1ccccn1	< 10

target: Phosphatidylinositol 4,5-bisphosphate 3-kinase catalytic subunit alpha isoform (Homo sapiens, UniProt P42336); test: Inhibition of PI3Kalpha (unknown origin) using PIP2 as substrate pretreated for 15 mins followed by substrate addition measured after 1 hr
Sequence (P42336 whole entry, canonical isoform): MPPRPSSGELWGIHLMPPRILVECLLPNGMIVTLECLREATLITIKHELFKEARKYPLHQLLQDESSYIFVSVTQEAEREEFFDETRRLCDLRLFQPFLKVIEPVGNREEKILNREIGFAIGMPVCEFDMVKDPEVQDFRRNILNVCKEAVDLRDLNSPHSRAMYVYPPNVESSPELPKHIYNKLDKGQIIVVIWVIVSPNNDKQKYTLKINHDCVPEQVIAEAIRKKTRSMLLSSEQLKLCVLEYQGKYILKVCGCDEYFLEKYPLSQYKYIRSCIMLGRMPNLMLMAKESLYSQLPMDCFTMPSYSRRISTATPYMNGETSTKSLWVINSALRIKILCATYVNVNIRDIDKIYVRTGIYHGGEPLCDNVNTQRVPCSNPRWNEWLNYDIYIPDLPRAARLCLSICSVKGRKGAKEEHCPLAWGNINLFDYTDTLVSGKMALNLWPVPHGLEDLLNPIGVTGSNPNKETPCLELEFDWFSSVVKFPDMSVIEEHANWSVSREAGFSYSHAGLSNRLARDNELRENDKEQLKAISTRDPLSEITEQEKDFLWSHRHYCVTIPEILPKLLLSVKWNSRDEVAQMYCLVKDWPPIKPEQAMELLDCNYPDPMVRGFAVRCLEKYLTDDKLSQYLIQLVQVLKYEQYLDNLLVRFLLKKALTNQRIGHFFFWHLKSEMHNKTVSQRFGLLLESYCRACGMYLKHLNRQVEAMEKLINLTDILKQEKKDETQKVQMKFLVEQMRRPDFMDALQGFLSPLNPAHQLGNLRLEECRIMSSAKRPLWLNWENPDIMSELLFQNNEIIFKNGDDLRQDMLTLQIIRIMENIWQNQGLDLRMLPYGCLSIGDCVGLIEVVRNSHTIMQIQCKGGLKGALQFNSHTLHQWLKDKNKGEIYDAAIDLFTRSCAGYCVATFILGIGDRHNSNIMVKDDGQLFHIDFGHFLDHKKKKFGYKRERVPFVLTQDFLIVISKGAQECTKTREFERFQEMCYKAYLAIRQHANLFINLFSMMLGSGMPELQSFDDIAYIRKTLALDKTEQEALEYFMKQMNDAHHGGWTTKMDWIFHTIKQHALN

Structure (SMILES)	IC50 [µM]
O=C(Nc1cc(-c2cccc3[nH]ccc23)cc2[nH]ncc12)C1CC1	> 25.1
O=C(Nc1cc(-c2ccccc2)cc2[nH]ncc12)C1CC1	25.1
O=C(Nc1cc(-c2cccc(O)c2)cc2[nH]ncc12)C1CC1	20
O=C(Nc1cc(-c2cccc(O)c2)cc2[nH]ncc12)c1ccccn1	25.1
O=C(Nc1cc(-c2ccc3cc[nH]c3c2)cc2[nH]ncc12)c1ccccn1	25.1
O=C(Nc1n[nH]c2cc(-c3ccc(O)cc3)ccc12)C1CC1	> 25.1
O=C(Nc1cc(-c2ccc(O)cc2)cc2[nH]ncc12)c1ccccn1	> 25.1
O=C(Nc1cc(-c2ccc(O)cc2)cc2[nH]ncc12)C1CC1	25.1

target: T2, Glycogen synthase kinase-3 beta (Homo sapiens, UniProt P49841); test: Inhibition of GSK3beta (unknown origin) after 1 hr by fluorescence polarization assay
T2 sequence (P49841 whole entry): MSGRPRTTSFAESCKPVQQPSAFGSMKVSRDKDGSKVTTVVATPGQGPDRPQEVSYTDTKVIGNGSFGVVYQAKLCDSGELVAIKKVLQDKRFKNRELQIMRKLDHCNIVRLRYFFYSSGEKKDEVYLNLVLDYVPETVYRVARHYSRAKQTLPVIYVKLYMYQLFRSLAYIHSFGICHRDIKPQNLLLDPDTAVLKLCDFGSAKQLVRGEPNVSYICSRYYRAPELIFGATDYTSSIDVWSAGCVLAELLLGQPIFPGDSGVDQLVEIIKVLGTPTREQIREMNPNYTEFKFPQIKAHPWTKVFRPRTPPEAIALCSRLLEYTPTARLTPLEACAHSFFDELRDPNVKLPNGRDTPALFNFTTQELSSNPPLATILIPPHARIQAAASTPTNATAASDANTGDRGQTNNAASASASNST

Structure (SMILES)	IC50 [µM]
O=C(Nc1cc(-c2cccc3[nH]ccc23)cc2[nH]ncc12)c1ccccn1	3.16
O=C(Nc1cc(-c2cccc3[nH]ccc23)cc2[nH]ncc12)C1CC1	7.94
O=C(Nc1cc(-c2ccccc2)cc2[nH]ncc12)C1CC1	31.6
O=C(Nc1cc(-c2cccc(O)c2)cc2[nH]ncc12)C1CC1	1.26
O=C(Nc1cc(-c2cccc(O)c2)cc2[nH]ncc12)c1ccccn1	1.58
O=C(Nc1cc(-c2ccc3cc[nH]c3c2)cc2[nH]ncc12)c1ccccn1	> 25.1
O=C(Nc1cc(-c2ccc(O)cc2)cc2[nH]ncc12)C1CC1	0.631

target: T2, Glycogen synthase kinase-3 beta; test: Inhibition of human GSK3beta using YRRAAVPPSPSLSRHSSPHQ(pS)EDEEE as substrate in presence of [gamma-33P]-ATP

Structure (SMILES)	IC50 [µM]
O=C(Nc1cc(-c2cccc3[nH]ccc23)cc2[nH]ncc12)c1ccccn1	20
O=C(Nc1cc(-c2ccc(O)cc2)cc2[nH]ncc12)c1ccccn1	1.58
